Values of other authors as cited in US20100151020A1, “DRUG […] SYSTEM FOR ZERO ORDER, ZERO ORDER BIPHASIC, ASCENDING OR […] […] OF METHYLPHENIDATE” (priority 2008, published 2010).
Structures can show the parent of a compound that is named as a salt. Where two headings read alike, the source gives them in different places.

Key:
[1] = chronic methylphenidate dosing
[2] = reports

COC(=O)C(c1ccccc1)C1CCCCN1 (stereo not shown) [methylphenidate HCl]
primary adverse events [1]: nervousness, insomnia, and appetite suppression | drug excreted (adults): 80% | drug excreted (children): 67% | time to peak (children, immediate release): 1.9 h | time to peak, range (children, immediate release): 0.3 to 4.4 h | pharmacokinetic half-life (immediate release): 2 to 3 h | AD/HD patients responding positively [2]: 70-90%
